In patent US8343987B2, “Heterocyclic derivatives” (Bayer Intellectual Property GmbH, priority 2004, dated 2013):

Target: T1, human neutrophil elastase (HNE) (Homo sapiens, UniProt P08246)
T1 construct: purchased SERVA Electrophoresis GmbH, Heidelberg, Germany #20927.01
T1 sequence (P08246 30-267): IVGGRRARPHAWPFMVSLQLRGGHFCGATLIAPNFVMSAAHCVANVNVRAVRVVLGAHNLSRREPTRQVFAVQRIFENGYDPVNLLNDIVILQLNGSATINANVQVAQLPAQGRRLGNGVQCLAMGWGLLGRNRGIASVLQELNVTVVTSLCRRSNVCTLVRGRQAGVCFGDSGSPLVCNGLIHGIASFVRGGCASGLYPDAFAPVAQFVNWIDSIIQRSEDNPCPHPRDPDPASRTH
Assay: In vitro inhibition of HNE using a fluorogenic peptide substrate (Example I-A)
Type: biochemical
Conditions: substrate MeOSuc-Ala-Ala-Pro-Val-AMC, continuous read-out, 384 MTP format
Experimental: The test solution is prepared by mixing 10 μl of test compound dilution, 20 μl of HNE enzyme dilution (final concentration 8-0.4 μU/ml, routinely 2.1 μU/ml) and 20 μl of substrate dilution (final concentration 1 mM-1 μM, routinely 20 μM), respectively. The solution is incubated for 0-2 hrs at 37° C. (routinely one hour). The fluorescence of the liberated AMC due to the enzymatic reaction is measured at 37° C. (TECAN spectra fluor plus plate reader). […] IC50 values are determined by RFU-versus-[I] plots. Km and Km(app.) values are determined by Lineweaver-Burk plots and converted to K1 values by Dixon plots.

Molecule	IC50 [nM]
COC(=O)c1cccc(CN2C(=O)N(c3cccc(C(F)(F)F)c3)C(C)=C(C(C)=O)C2c2ccc(C#N)cc2)c1 (stereo not shown) [Example 1, Methyl 3-{[5-acetyl-6-(4-cyanophenyl)-4-methyl-2-oxo-3-[3-(trifluoromethyl-)phenyl]-3,6-dihydropyrimidin-1(2H)-yl]methyl}benzoate]	30
CC1=C(C#N)C(c2ccc(C#N)nc2)NC(=O)N1c1cccc(C(F)(F)F)c1 (stereo not shown) [Example 19A, 4-(6-Cyanopyridin-3-yl)-6-methyl-2-oxo-1-[3-(trifluoromethyl)phenyl]-1,2,3-,4-tetrahydro-pyrimidine-5-carbonitrile]	70
CC(=O)C1=C(C)N(c2cccc(C(F)(F)F)c2)C(=O)N(Cc2ccc(C(CC(C)C)C(=O)O)cc2)C1c1ccc(C#N)cc1 (stereo not shown) [Example 19]	20
CC1=C(C(=O)c2cccnc2)C(c2ccc(C#N)cc2)NC(=O)N1c1cccc(C(F)(F)F)c1 (stereo not shown) [Example 21A, 4-{6-Methyl-2-oxo-5-(pyridin-3-ylcarbonyl)-1-[3-(trifluoromethyl)phenyl]-1-,2,3,4-tetrahydro-pyrimidin-4-yl}benzonitrile]	60
CC(=O)C1=C(C)N(c2cccc(C(F)(F)F)c2)C(=O)N(Cc2ccc(C(=O)O)cc2)[C@@H]1c1ccc(C#N)cc1 [Example 22]	8
CC(=O)C1=C(C)N(c2cccc(C(F)(F)F)c2)C(=O)N(/C=C/C(=O)O)C1c1ccc(C#N)cc1 (stereo not shown) [Example 24]	10
CC1=C(C(=O)c2ccco2)C(c2ccc(C#N)cc2)N(CC(=O)O)C(=O)N1c1cccc(C(F)(F)F)c1 (stereo not shown) [Example 29A, [6-(4-Cyanophenyl)-5-(2-furoyl)-4-methyl-2-oxo-3-[3-(trifluoromethyl)pheny-l]-3,6-dihydropyrimidin-1(2H)-yl]acetic acid]	20
CC1=C(C(=O)c2cccnc2)C(c2ccc(C#N)cc2)N(CC(=O)O)C(=O)N1c1cccc(C(F)(F)F)c1 (stereo not shown) [Example 31A, [6-(4-Cyanophenyl)-4-methyl-2-oxo-5-(pyridin-3-ylcarbonyl)-3-[3-(trifluoro-methyl)phenyl]-3,6-dihydropyrimidin-1(2H)-yl]acetic acid]	10
CC1=C(C(=O)O)C(c2ccc(C#N)cc2)N(Cc2cccc(/C=C/C(=O)O)c2)C(=O)N1c1cccc(C(F)(F)F)c1 (stereo not shown) [Example 39, 3-{3-[(E)-2-Carboxyvinyl]benzyl}-4-(4-cyanophenyl)-6-methyl-2-oxo-1-[3-(trifluoromethyl)-phenyl]-1,2,3,4-tetrahydropyrimidine-5-carboxylic acid]	120
CC1=C(C(=O)c2ccco2)C(c2ccc(C#N)cc2)N(Cc2cccc(C(=O)O)c2)C(=O)N1c1cccc(C(F)(F)F)c1 (stereo not shown) [Example 44]	30
CC1=C(C(=O)c2cccnc2)C(c2ccc(C#N)cc2)N(CC(=O)NS(=O)(=O)CC(F)(F)F)C(=O)N1c1cccc(C(F)(F)F)c1 (stereo not shown) [Example 55, 2-[6-(4-Cyanophenyl)-4-methyl-2-oxo-5-(pyridin-3-ylcarbonyl)-3-[3-(trifluoromethyl)phenyl]-3,6-dihydropyrimidin-1(2H)-yl]-N-[(2,2,2-trifluoroethyl)sulfonyl]acetamide]	20
C=CCOC(=O)C1=C(C)N(c2cccc(C(F)(F)F)c2)C(=O)N(C2(C(=O)OCC)CC2)C1c1ccc(C#N)cc1 (stereo not shown) [Example 61]	130
C=CCOC(=O)C1=C(C)N(c2cccc(C(F)(F)F)c2)C(=O)N(CC(=O)NS(=O)(=O)c2ccc(C(F)(F)F)cc2)C1c1ccc(C#N)cc1 (stereo not shown) [Example 67]	70
CC(=O)C1=C(C)N(c2cccc(C(F)(F)F)c2)C(=O)N(CC(=O)NS(=O)(=O)c2ccc(C#N)cc2)[C@@H]1c1ccc(C#N)cc1 [Example 74]	10

System: human polymorphonuclear cells (PMNs)
Assay: In vitro PMN elastolysis assay (Example II-A)
Type: cell-based
Conditions: at 1.2 μM; mean±s.e.m.; n=3 different donors at 3.6×10^5 cells per well
Experimental: This assay is used to determine the elastolytic potential of human polymorphonuclear cells (PMNs) and assess the proportion of degradation due to neutrophil elastase [cf. Z. W. She et al., Am. J. Respir. Cell. Mol. Biol. 9386-392 (1993)].
Tritiated elastin, in suspension, is coated on to a 96 well plate at 10 μg per well. Test and reference [ZD-0892 (J. Med. Chem. 40, 1876-1885, 3173-3181 (1997), WO 95/21855) and α1 protease inhibitor (α1PI)] compounds are added to the wells at the appropriate concentrations. Human PMNs are separated from peripheral venous blood of healthy donors and resuspended in culture media. The neutrophils are added to the coated wells at concentrations ranging between […] cells per well. Porcine pancreatic elastase (1.3 μM) is used as a positive control for the assay, and α1PI (1.2 μM) is used as the positive inhibitor of neutrophil elastase. The cellular control is PMNs without compound at each appropriate cell density. The cells plus compounds are incubated in a humidified incubator at 37° C. for 4 hours. The plates are centrifuged to allow the harvest of cell supernatant only. The supernatant is transferred in 75 μl volumes to corresponding wells of a 96 well Lumaplate™ (solid scintillant containing plates). The plates are dried until no liquid is visible in the wells and read in a beta counter for 3 minutes per well. […]

Molecule	inhibition of 3H-elastin elastolysis [%]
α1PI: α1 protease inhibitor, used as the positive inhibitor of neutrophil elastase	83.46±3.97

Same assay, conditions: mean±s.e.m.; n=2 different donors at 3.6×10^5 cells per well

Molecule	IC50 [nM]
COc1ccc(C(=O)N[C@H](C(=O)N2CCC[C@H]2C(=O)N[C@H](C(=O)C(F)(F)F)C(C)C)C(C)C)cc1 [ZD-0892]	45.5 ± 7.75
